Assay results published in publication PMC3269340, “Pharmacokinetics of memantine in rats and mice” (PLoS Currents, 2012).
Where two headings read alike, the source gives them in different places.

Assay: Pharmacokinetics in rats after single iv, po or sc dose (plasma and brain)
Format: in vivo, Sprague-Dawley rats
Conditions: male, Sprague-Dawley; for Kp: brain/plasma, read-out: Ratio of Brain-to-Plasma AUC(0-∞); for Vd: read-out: Volume of Distribution at Steady State (Vdss); for bioavailability: read-out: Bioavailability (F); for AUC(0-inf): read-out: AUC(0-∞); for Cmax: read-out: Observed Cmax
Procedure: Sprague Dawley (SD) rats (138 adult males), and C57Bl/6 mice (140 adult males), were obtained (Hilltop Laboratories, Scottsdale, PA); 123 per species were used in the study and the remainder provided blank matrix. Animals were individually identified by tail markings and were acclimated to the study environment for 16-21 days prior to dose administration. Animals were individually housed in suspended wire caging, and were kept on a 12h/12h light/dark cycle except when interrupted for study procedures. Average room temperature was regulated in the range 18 to 29°C, average relative humidity of 30-70%, and an average daily airflow >10 fresh air changes/h. Animals were fed LabDiet^Ò Certified Rodent Diet 5002 Meal food ad libitum, except during fasting prior to dose administration, and had access to water ad libitum.
[…] […] The concentration of memantine for the same dose level administered to mice was 0.2 mg eq./mL, and the dose volume was 5 mL/kg. The concentration of memantine in the 10mg eq./kg po and sc solutions was 5 mg eq./mL and the dose volume was 2 mL/kg for both rats and mice.
Details of the dose administration, body weights, clinical observations, plasma and brain sample collection and preparation are not shown in this report but are available upon request. Blood (for preparation of plasma) and brain samples were collected at 0.08, 0.25, 0.5, 1, 2, 4, 8, and 24h post-dose.
Since all time points were terminal, mean memantine concentrations per time point were used to calculate the composite PK parameters by non-compartmental analysis using WinNonlin program, version 5.2 (Pharsight Corp., Mountain View, California). A model was selected based on the vascular (iv bolus) or extravascular (po or sc) routes of administration. For the iv route, plasma concentration at time zero was back extrapolated from the first two observed post dose plasma concentrations. For the po and sc routes, concentration at time zero was assumed to be zero. Plasma and tissue concentrations below the limit of quantitation were treated as absent samples for the purpose of calculating the mean plasma concentration values or for calculating PK parameters.
The area under the plasma concentration versus time curve (AUC) was calculated using the linear trapezoidal method (linear interpolation). When appropriate, the terminal elimination phase of the PK profile was estimated based on the best fit (r^2) using at least the last three observed concentrations. PK parameters describing the systemic exposure of memantine in plasma and brain were estimated from observed (rather than predicted) plasma/brain concentrations, the dosing regimen, the AUC, and the terminal elimination phase rate constant (kel) for each group. The portion of the AUC from the last measurable concentration to infinity was estimated from the equation Ct/kel, where Ct represents the last measurable concentration. The extrapolated portion of the AUC was used for the determination of AUC0-∞. The percent bioavailability (%F) was calculated by dividing the dose normalized extravascular plasma AUC0-∞ by the dose normalized iv plasma AUC0-∞ times 100. The bioavailability calculations assumed concentrations were in the linear range.
Concentrations of memantine in rat and mouse plasma and brain were determined using an LC-MS/MS assay developed at ABC Laboratories.

[1] = rat, brain, iv, 1.22 mg/kg, rat brain, IV 1.22 mg eq./kg
[2] = rat, brain, po, 1.22 mg/kg, rat brain, PO 1.22 mg eq./kg
[3] = rat, brain, po, 10 mg/kg, rat brain, PO 10.0 mg eq./kg
[4] = rat, brain, sc, 1 mg/kg, rat brain, SC 1.0 mg eq./kg
[5] = rat, brain, sc, 10 mg/kg, rat brain, SC 10.0 mg eq./kg

Compound `CC12CC3CC(C)(C1)CC(N)(C3)C2` [memantine] has an AUC(0-t) (1 mg/kg, rat brain, SC 1.0 mg eq./kg) of 48 µM·h, a Tmax (1 mg/kg, rat brain, SC 1.0 mg eq./kg, read-out: Observed Tmax) of 0.5 h and an AUC(0-t) (1 mg/kg, rat plasma, SC 1.0 mg eq./kg) of 1.62 µM·h. For the same compound, the Tmax (1 mg/kg, rat plasma, SC 1.0 mg eq./kg, read-out: Observed Tmax) was 0.25 h, the AUC(0-t) (1.22 mg/kg, rat brain, IV 1.22 mg eq./kg) was 43 µM·h and the Tmax (1.22 mg/kg, rat brain, IV 1.22 mg eq./kg, read-out: Observed Tmax) was 0.5 h. It also gave an AUC(0-t) (1.22 mg/kg, rat brain, PO 1.22 mg eq./kg) of 13.1 µM·h, a Tmax (1.22 mg/kg, rat brain, PO 1.22 mg eq./kg, read-out: Observed Tmax) of 2 h and an AUC(0-t) (1.22 mg/kg, rat plasma, IV 1.22 mg eq./kg) of 1.57 µM·h. For the same compound, the MRT inf (1.22 mg/kg, rat plasma, IV 1.22 mg eq./kg, read-out: Mean Residency Time (MRT0-∞)) was 2.08 h, the AUC(0-t) (1.22 mg/kg, rat plasma, PO 1.22 mg eq./kg) was 0.541 µM·h and the Tmax (1.22 mg/kg, rat plasma, PO 1.22 mg eq./kg, read-out: Observed Tmax) was 1 h. The AUC(0-t) (10 mg/kg, rat brain, PO 10.0 mg eq./kg) was 254 µM·h, the Tmax (10 mg/kg, rat brain, PO 10.0 mg eq./kg, read-out: Observed Tmax) was 2 h and the AUC(0-t) (10 mg/kg, rat brain, SC 10.0 mg eq./kg) was 441 µM·h. It also gave a Tmax (10 mg/kg, rat brain, SC 10.0 mg eq./kg, read-out: Observed Tmax) of 1 h, an AUC(0-t) (10 mg/kg, rat plasma, PO 10.0 mg eq./kg) of 11.2 µM·h and a Tmax (10 mg/kg, rat plasma, PO 10.0 mg eq./kg, read-out: Observed Tmax) of 0.5 h. It also gave an AUC(0-t) (10 mg/kg, rat plasma, SC 10.0 mg eq./kg) of 25.8 µM·h, a Tmax (10 mg/kg, rat plasma, SC 10.0 mg eq./kg, read-out: Observed Tmax) of 0.5 h and a Kp (rat, IV 1.22 mg eq./kg) of 29.1. For the same compound, the Kp (rat, PO 1.22 mg eq./kg) was 35.6, the Kp (rat, PO 10.0 mg eq./kg) was 22.5 and the Kp (rat, SC 1.0 mg eq./kg) was 31.4. For the same compound, the Kp (rat, SC 10.0 mg eq./kg) was 17.1, the clearance (plasma, 1.22 mg/kg, rat, IV 1.22 mg eq./kg, read-out: Plasma Clearance (CLp) (converted)) was 69.2 mL/min/kg and the Vd (plasma, 1.22 mg/kg, rat, IV 1.22 mg eq./kg) was 8.62 L/kg. The bioavailability (plasma, 1.22 mg/kg, rat, PO 1.22 mg eq./kg) was 36.3%, the bioavailability (plasma, 10 mg/kg, rat, PO 10.0 mg eq./kg) was 84.9% and the concentration at 24 h (plasma, oral, rat, dose 10 mg/kg, single dose in solution, read-out: C min) was 0.03 µM. It also gave a Tmax (plasma, po, rat, dose 1 mg/kg, cross-species summary, read-out: T max) of 1 h, a Vd (plasma, rat, IV 1.22 mg eq./kg) of 8 to 9 L/kg and a bioavailability (plasma, rat, PO 1.22 mg eq./kg) of 36%. The Tmax (plasma, rat, dose 10 mg/kg, cross-species summary, read-out: T max) was 0.5 to 1 h, the AUC(0-inf) [1] was 47.6 µM·h and the half-life (rat, brain, iv, 1.22 mg/kg, rat brain, IV 1.22 mg eq./kg, read-out: Half-life (t½) (converted)) was 2.28 h. It also gave a Cmax [1] of 11 µM, a half-life (rat, brain, oral, subcutaneous, summary for rats and mice, rat, read-out: brain elimination half-lives after extravascular administrations) of 2.3 to 3.8 h and a half-life (rat, brain, po, 1.22 mg/kg, rat brain, PO 1.22 mg eq./kg, estimated using the LOQ for the 24 hr concentration, large imprecision, read-out: Half-life (t½) (converted)) of less than 2.54 h. It also gave an AUC(0-inf) [2] of 21.1 µM·h, a Cmax [2] of 2.17 µM and an AUC(0-inf) [3] of 256 µM·h. The half-life (rat, brain, po, 10 mg/kg, rat brain, PO 10.0 mg eq./kg, read-out: Half-life (t½) (converted)) was 3.7 h, the Cmax [3] was 25.4 µM and the AUC(0-inf) [4] was 53 µM·h. The half-life (rat, brain, sc, 1 mg/kg, rat brain, SC 1.0 mg eq./kg, read-out: Half-life (t½) (converted)) was 2.51 h, the Cmax [4] was 10.6 µM and the AUC(0-inf) [5] was 442 µM·h. The half-life (rat, brain, sc, 10 mg/kg, rat brain, SC 10.0 mg eq./kg, read-out: Half-life (t½) (converted)) was 2.65 h, the Cmax [5] was 75.4 µM and the half-life (rat, plasma, intravenous, oral, subcutaneous, rat, all dose routes and levels (plasma; b142 also brain), read-out: elimination half-life) was 3 to 4 h.
